Broadly, the IC50 is the concentration at which inhibition is half-maximal.

The structures appear in SMILES notation.

For one experiment, the target named is T1, TGF-beta receptor type-1 (Homo sapiens, UniProt P36897).
T1 sequence (P36897 whole entry): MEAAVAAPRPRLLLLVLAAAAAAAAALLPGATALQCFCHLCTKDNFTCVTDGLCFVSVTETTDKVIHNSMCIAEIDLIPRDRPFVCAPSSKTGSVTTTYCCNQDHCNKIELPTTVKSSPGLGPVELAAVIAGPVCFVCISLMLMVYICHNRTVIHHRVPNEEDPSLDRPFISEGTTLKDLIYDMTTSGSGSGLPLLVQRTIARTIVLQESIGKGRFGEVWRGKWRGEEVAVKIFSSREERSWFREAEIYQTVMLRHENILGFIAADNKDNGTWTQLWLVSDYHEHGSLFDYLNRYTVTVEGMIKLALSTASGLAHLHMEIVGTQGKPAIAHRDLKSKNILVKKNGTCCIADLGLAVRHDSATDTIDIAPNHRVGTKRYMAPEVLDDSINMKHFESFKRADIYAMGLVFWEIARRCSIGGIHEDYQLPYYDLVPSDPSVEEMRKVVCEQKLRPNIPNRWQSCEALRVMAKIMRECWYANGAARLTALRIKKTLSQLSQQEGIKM
Briefly: Inhibition of human recombinant ALK5 phosphorylation expressed in Sf9 cells.
`CCc1cccc(-c2nc(CNc3ccc(C(N)=O)cc3)[nH]c2-c2ccc3nccnc3c2)n1`: the 50% inhibitory concentration (IC50) came out at 92 nM. With `Cc1cccc(-c2[nH]c(NCc3cccc(C#N)c3)nc2-c2ccc3c(c2)OCO3)n1`, the IC50 was 24 nM. Turning to `Cc1cccc(-c2[nH]c(CNc3ccc(C#N)cc3)nc2-c2ccc3c(c2)OCO3)n1`, the IC50 was determined as 174 nM. Still for that read-out and setting: with `CCc1cccc(-c2nc(CNc3cccc(C#N)c3)[nH]c2-c2ccc3c(c2)OCO3)n1` the figure was 73 nM; with `CCc1cccc(-c2[nH]c(CNc3ccc(C#N)cc3)nc2-c2ccc3c(c2)OCO3)n1`, 360 nM.

As for `Cc1cccc(-c2[nH]c(CNc3ccc(C#N)cc3)nc2-c2ccc3nccnc3c2)n1`, the half-inhibitory concentration (IC50) was found to be 42 nM. In the case of `CCc1cccc(-c2[nH]c(CNc3cccc(C#N)c3)nc2-c2ccc3nccnc3c2)n1`, the IC50 is 119 nM. On the same count and under the same terms, in the case of `CCc1cccc(-c2[nH]c(CNc3ccc(C#N)cc3)nc2-c2ccc3nccnc3c2)n1` it was 47 nM; in that of `Cc1cccc(-c2[nH]c(CNc3ccc(C(N)=O)cc3)nc2-c2ccc3c(c2)OCO3)n1`, 262 nM. Take `CCc1cccc(-c2nc(CNc3cccc(C(N)=O)c3)[nH]c2-c2ccc3c(c2)OCO3)n1`: the IC50 was determined as 46 nM.

As for `Cc1cccc(-c2nc(CNc3cccc(C(N)=O)c3)[nH]c2-c2ccc3nccnc3c2)n1`, the concentration for half-maximal inhibition (IC50) was 10 nM.

For the compound `Cc1cccc(-c2nc(CNc3ccc(C(N)=O)cc3)[nH]c2-c2ccc3nccnc3c2)n1`, the IC50 amounted to 75 nM.

Consider `CCc1cccc(-c2[nH]c(CNc3cccc(C(N)=O)c3)nc2-c2ccc3nccnc3c2)n1`, for which the IC50 is 15 nM. As to `Cc1cccc(-c2[nH]c(CNc3cccc(C#N)c3)nc2-c2ccc3c(c2)OCO3)n1`, the half-inhibitory concentration (IC50) was found to be 46 nM.

`Cc1cccc(-c2[nH]c(CNc3cccc(C#N)c3)nc2-c2ccc3nccnc3c2)n1`: the IC50 worked out at 12 nM. Consider `Cc1cccc(-c2[nH]c(CNc3cccc(C(N)=O)c3)nc2-c2ccc3c(c2)OCO3)n1`, for which the IC50 came out at 21 nM. On the same count and under the same terms, with `CCc1cccc(-c2[nH]c(CNc3ccc(C(N)=O)cc3)nc2-c2ccc3c(c2)OCO3)n1` the figure was 385 nM.

`Cc1cccc(-c2[nH]c(NCc3ccc(C#N)cc3)nc2-c2ccc3c(c2)OCO3)n1`: the IC50 is 153 nM.

A further experiment has as its target T2, Serine/threonine-protein kinase D1 (Homo sapiens, UniProt Q15139).
T2 sequence (Q15139 whole entry): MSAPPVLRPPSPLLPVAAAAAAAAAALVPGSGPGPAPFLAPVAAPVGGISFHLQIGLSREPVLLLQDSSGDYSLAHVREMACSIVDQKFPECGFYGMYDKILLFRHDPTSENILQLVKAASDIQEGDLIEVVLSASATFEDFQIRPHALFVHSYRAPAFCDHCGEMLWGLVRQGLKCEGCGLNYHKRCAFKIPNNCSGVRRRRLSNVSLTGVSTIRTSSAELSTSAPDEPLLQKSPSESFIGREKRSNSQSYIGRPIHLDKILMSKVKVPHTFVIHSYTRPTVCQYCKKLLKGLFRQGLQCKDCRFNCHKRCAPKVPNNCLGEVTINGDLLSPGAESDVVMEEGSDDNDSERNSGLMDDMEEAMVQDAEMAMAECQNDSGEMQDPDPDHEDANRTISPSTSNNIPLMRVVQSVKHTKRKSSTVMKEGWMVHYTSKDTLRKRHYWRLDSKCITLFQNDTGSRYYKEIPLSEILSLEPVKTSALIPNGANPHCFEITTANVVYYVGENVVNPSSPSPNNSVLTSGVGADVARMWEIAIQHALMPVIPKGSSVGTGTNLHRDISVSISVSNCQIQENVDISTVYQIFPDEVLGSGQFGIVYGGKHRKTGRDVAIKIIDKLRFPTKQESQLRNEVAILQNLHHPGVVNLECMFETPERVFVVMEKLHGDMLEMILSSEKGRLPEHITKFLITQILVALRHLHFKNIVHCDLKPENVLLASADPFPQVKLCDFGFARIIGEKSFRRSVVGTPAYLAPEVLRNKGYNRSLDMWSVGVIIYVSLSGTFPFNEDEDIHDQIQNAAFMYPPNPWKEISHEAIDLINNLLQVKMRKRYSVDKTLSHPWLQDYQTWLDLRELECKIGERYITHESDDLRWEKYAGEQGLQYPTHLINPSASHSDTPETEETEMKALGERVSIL
Briefly: Inhibition of PKCmu.
For the compound `Cc1cccc(-c2[nH]c(CNc3cccc(C#N)c3)nc2-c2ccc3nccnc3c2)n1`, the half-inhibitory concentration (IC50) came to 1000 nM.

Another experiment deals with Mitogen-activated protein kinase 14 (Homo sapiens, UniProt Q16539).
Sequence of Mitogen-activated protein kinase 14 (Q16539 whole entry): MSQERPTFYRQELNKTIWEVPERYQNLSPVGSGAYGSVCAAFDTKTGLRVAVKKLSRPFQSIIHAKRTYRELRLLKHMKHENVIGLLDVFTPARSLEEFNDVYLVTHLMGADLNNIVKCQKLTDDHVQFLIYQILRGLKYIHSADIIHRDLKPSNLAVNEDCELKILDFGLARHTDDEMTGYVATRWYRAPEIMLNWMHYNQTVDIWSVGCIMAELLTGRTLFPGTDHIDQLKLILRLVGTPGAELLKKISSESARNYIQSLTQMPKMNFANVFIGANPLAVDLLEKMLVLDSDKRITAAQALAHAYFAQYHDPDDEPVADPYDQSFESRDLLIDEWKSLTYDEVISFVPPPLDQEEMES
Regarding `Cc1cccc(-c2[nH]c(CNc3cccc(C#N)c3)nc2-c2ccc3nccnc3c2)n1`, the 50% inhibitory concentration (IC50) was 1030 nM.

The values above are taken from ChEMBL document CHEMBL1145400, “Synthesis and biological evaluation of 4(5)-(6-alkylpyridin-2-yl)imidazoles as transforming growth factor-beta type 1 receptor kinase inhibitors” (J Med Chem, 2007).
